In patent US10669272B2, “Substituted naphthyridinone compounds useful as T cell activators” (BRISTOL-MYERS SQUIBB COMPANY, priority 2018, dated 2020):
Where two headings read alike, the source gives them in different places.

How the values were obtained:
naïve human CD8 T cells = assay: Human CD8 T cells IFN-γ assay; type: cell-based; settings: normalized to 3 μM reference compound with anti-CD3 plus anti-CD28 as 100% activation, read-out: HuCD8 INFG Normalized EC50;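 further: Naïve human CD8 T cells stimulated with plate-bound anti-CD3 and soluble anti-CD28, IFN-γ in supernatant quantified by AlphaLISA and converted to pg/mL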
human DGKζ = molecular target: T1, human DGKζ (Homo sapiens, UniProt Q13574); assay: DGKζ LIPGLO assay (extruded liposome substrate), in vitro DGK inhibition; type: biochemical; settings: liposome (LIPGLO) assay; read-out: DGKz LIPGLO IC50
T1 construct: TVMV protease cleavage site (C); Hexa-His (C); made in house; host or cells: Sf9 insect cells (baculovirus, Bac-to-Bac)
T1 sequence (Q13574 with tags, fused parts or gaps isoform Q13574-4): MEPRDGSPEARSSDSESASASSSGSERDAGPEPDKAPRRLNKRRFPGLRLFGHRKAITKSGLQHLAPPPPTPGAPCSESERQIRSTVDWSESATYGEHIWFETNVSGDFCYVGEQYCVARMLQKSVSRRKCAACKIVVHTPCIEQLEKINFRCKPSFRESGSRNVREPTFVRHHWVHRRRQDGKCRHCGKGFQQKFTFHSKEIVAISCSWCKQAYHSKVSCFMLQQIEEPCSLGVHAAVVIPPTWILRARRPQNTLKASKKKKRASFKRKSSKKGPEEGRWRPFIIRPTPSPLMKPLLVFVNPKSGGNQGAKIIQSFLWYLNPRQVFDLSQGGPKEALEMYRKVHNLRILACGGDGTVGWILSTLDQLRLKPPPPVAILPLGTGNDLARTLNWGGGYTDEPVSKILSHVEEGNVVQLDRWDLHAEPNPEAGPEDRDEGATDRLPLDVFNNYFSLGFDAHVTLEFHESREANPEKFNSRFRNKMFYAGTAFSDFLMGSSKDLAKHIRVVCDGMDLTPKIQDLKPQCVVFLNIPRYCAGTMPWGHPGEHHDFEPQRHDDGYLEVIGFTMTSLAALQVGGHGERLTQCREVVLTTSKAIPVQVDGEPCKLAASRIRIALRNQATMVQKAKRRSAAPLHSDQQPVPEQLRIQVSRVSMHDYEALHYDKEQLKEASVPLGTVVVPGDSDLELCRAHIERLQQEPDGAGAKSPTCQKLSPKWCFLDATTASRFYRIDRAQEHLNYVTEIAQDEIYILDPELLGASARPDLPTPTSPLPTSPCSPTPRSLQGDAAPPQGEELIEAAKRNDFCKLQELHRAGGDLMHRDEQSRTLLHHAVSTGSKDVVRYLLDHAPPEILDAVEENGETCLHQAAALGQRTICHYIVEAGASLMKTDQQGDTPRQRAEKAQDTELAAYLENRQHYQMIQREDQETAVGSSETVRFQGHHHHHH

human DGKα = molecular target: T2, human DGKα (Homo sapiens, UniProt P23743); assay: DGKα LIPGLO assay (extruded liposome substrate), in vitro DGK inhibition; type: biochemical; settings: liposome (LIPGLO) assay; read-out: DGKa LIPGLO IC50
T2 construct: TVMV protease cleavage site (C); Hexa-His (C); made in house; host or cells: Sf9 insect cells (baculovirus, Bac-to-Bac)
T2 sequence (P23743 with tags, fused parts or gaps): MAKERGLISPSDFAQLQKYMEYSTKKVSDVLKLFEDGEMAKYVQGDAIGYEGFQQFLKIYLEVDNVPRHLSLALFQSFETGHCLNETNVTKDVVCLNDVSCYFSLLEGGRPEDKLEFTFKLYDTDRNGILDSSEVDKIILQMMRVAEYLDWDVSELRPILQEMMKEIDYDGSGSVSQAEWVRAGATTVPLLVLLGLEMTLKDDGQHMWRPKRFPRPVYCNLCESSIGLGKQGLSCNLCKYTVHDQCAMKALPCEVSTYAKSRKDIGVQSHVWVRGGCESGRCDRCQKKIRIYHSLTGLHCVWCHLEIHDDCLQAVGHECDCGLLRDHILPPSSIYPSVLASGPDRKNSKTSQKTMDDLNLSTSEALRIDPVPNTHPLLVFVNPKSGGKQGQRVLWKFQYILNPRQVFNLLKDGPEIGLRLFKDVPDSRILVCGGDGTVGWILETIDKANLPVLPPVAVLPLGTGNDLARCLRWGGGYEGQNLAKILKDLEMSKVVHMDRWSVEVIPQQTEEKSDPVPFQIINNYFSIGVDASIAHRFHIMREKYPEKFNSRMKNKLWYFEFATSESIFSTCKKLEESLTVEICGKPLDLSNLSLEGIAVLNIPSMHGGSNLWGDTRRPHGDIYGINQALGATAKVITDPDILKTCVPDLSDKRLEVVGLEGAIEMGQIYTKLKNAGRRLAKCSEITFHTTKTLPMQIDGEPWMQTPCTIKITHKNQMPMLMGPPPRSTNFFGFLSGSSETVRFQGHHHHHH

| SMILES | IC50 (human DGKζ) [µM] | IC50 (human DGKα) [µM] | EC50 (naïve human CD8 T cells) [µM] | EC50 (naïve human CD8 T cells; Homo sapiens, T-cell, 20 h) [µM] |
| --- | --- | --- | --- | --- |
| COC(=O)C1CN(c2cc(=O)n(C)c3ccc(C#N)nc23)CCN1C(c1ccc(F)cc1)c1ccc(F)cc1OC (single isomer, unassigned) [Example 68, Methyl 4-(6-cyano-1-methyl-2-oxo-1,2-dihydro-1,5-naphthyridin-4-yl)-1-((4-fluoro-2-methoxyphenyl)(4-fluorophenyl)methyl)piperazine-2-carboxylate] | 0.25 | 18 | 0.011 |  |
| COC(=O)C1CN(c2c(F)c(=O)n(C)c3ccc(C#N)nc23)CCN1C(c1ccc(Cl)cc1)c1ccc(Cl)cc1 (single isomer, unassigned) [Example 94, methyl 1-(bis(4-chlorophenyl)methyl)-4-(6-cyano-3-fluoro-1-methyl-2-oxo-1,2-dihydro-1,5-naphthyridin-4-yl)piperazine-2-carboxylate] | 4.4 | 27 | 0.4 |  |
| COC(=O)C1CN(c2c(F)c(=O)n(C)c3ccc(C#N)nc23)CCN1C(c1ccc(Cl)cc1)c1ccc(Cl)cc1 (single isomer, unassigned) [Example 95, methyl 1-(bis(4-chlorophenyl)methyl)-4-(6-cyano-3-fluoro-1-methyl-2-oxo-1,2-dihydro-1,5-naphthyridin-4-yl)piperazine-2-carboxylate] | 0.76 | 2.6 | 0.021 |  |
| COc1cc(F)ccc1C(c1ccc(F)cc1)N1C[C@H](C)N(c2c(C#N)c(=O)n(C)c3ccc(C#N)nc23)C[C@H]1C (single isomer, unassigned) [Example 111] | 1.6 | 62 |  | 0.073 |
| COC(=O)C1CN(C(c2ccc(F)cc2)c2ccc(F)cc2)CCN1c1cc(=O)n(C)c2ccc(C#N)nc12 (single isomer, unassigned) [Example 137, Methyl 4-(bis(4-fluorophenyl)methyl)-1-(6-cyano-1-methyl-2-oxo-1,2-dihydro-1,5-naphthyridin-4-yl)piperazine-2-carboxylate] | 33 | 240 | 1.5 |  |
| Cn1c(=O)cc(N2CCN(C(c3ccc(F)cc3)c3ccc(F)cc3)CC2C(=O)NC2CC2)c2nc(C#N)ccc21 (single isomer, unassigned) [Example 140, 4-(bis(4-fluorophenyl)methyl)-1-(6-cyano-1-methyl-2-oxo-1,2-dihydro-1,5-naphthyridin-4-yl)-N-cyclopropylpiperazine-2-carboxamide] | 25 | 150 | 6.6 |  |
| Cn1c(=O)cc(N2CCN(C(c3ccc(F)cc3)c3ccc(F)cc3)CC2C(N)=O)c2nc(C#N)ccc21 (single isomer, unassigned) [Example 142, 4-(bis(4-fluorophenyl)methyl)-1-(6-cyano-1-methyl-2-oxo-1,2-dihydro-1,5-naphthyridin-4-yl)piperazine-2-carboxamide] | 65 | 40 |  | 10 |
| Cn1c(=O)cc(N2CCN(C(c3ccc(F)cc3)c3ccc(F)cc3)CC2C#N)c2nc(C#N)ccc21 (single isomer, unassigned) [Example 144, 8-(4-(bis(4-fluorophenyl)methyl)-2-cyanopiperazin-1-yl)-5-methyl-6-oxo-5,6-dihydro-1,5-naphthyridine-2-carbonitrile] | 2.4 | 1.4 |  | 1.2 |
| Cn1c(=O)cc(N2CCN(C(c3ccc(F)cc3)c3ccc(F)cc3)CC2CO)c2nc(C#N)ccc21 (single isomer, unassigned) [Example 147, 8-(4-(bis(4-fluorophenyl)methyl)-2-(hydroxymethyl)piperazin-1-yl)-5-methyl-6-oxo-5,6-dihydro-1,5-naphthyridine-2-carbonitrile] | 15 | 48 | 2 |  |
| Cn1c(=O)cc(N2CCN(C(c3ccc(F)cc3)c3ccc(F)cc3)CC2CO)c2nc(C#N)ccc21 (single isomer, unassigned) [Example 148, 8-(4-(bis(4-fluorophenyl)methyl)-2-(hydroxymethyl)piperazin-1-yl)-5-methyl-6-oxo-5,6-dihydro-1,5-naphthyridine-2-carbonitrile] | 75 | 240 | 0.42 |  |
| Cn1c(=O)cc(N2CCN(C(c3ccc(F)cc3)c3ccc(F)cc3)CC2CF)c2nc(C#N)ccc21 (single isomer, unassigned) [Example 150, 8-(4-(bis(4-fluorophenyl)methyl)-2-(fluoromethyl)piperazin-1-yl)-5-methyl-6-oxo-5,6-dihydro-1,5-naphthyridine-2-carbonitrile] | 29 | 240 | 10 |  |
| C[C@@H]1CN(C(c2ccc(F)cc2)c2ccc(F)cc2)[C@@H](C)CN1c1c(C#N)c(=O)n(C)c2ccc(C#N)nc12 [Example 6, 8-((2R,5S)-4-(bis(4-fluorophenyl)methyl)-2,5-dimethylpiperazin-1-yl)-5-methyl-6-oxo-5,6-dihydro-1,5-naphthyridine-2,7-dicarbonitrile] | 16 | 25 |  | 0.56 |
| Cn1c(=O)c(C#N)c(N2CCN(C(c3ccc(F)cc3)c3ccc(F)cc3)C(CO)C2)c2nc(Br)ccc21 (stereo not drawn) [Example 17, 4-(4-(bis(4-fluorophenyl)methyl)-3-(hydroxymethyl)piperazin-1-yl)-6-bromo-1-methyl-2-oxo-1,2-dihydro-1,5-naphthyridine-3-carbonitrile] | 19 | 2.3 |  | 6.5 |
| Cn1c(=O)cc(N2CCN(C(c3ccc(F)cc3)c3ccc(F)cc3)C(C(=O)O)C2)c2nc(C#N)ccc21 (stereo not drawn) [Example 55, 1-(bis(4-fluorophenyl)methyl)-4-(6-cyano-1-methyl-2-oxo-1,2-dihydro-1,5-naphthyridin-4-yl)piperazine-2-carboxylic acid] | 180 | 240 |  | 6.4 |
| Cn1c(=O)c(C#N)c(N2CCN(C(c3ccc(F)cc3)c3ccc(F)cc3)CC2CO)c2nc(Br)ccc21 (stereo not drawn) [Example 118, 4-(4-(bis(4-fluorophenyl)methyl)-2-(hydroxymethyl)piperazin-1-yl)-6-bromo-1-methyl-2-oxo-1,2-dihydro-1,5-naphthyridine-3-carbonitrile] | 63 | 10 |  | 0.71 |
| Cn1c(=O)cc(N2CCN(C(c3ccc(F)cc3)c3ccc(F)cc3)CC2C(=O)O)c2nc(C#N)ccc21 (stereo not drawn) [Example 138, 4-(bis(4-fluorophenyl)methyl)-1-(6-cyano-1-methyl-2-oxo-1,2-dihydro-1,5-naphthyridin-4-yl)piperazine-2-carboxylic acid] | 95 | 82 |  | 10 |

More lines, main results first:

| IC50 (human DGKζ) [µM] | IC50 (human DGKα) [µM] | SMILES | EC50 (naïve human CD8 T cells) [µM] | EC50 (naïve human CD8 T cells; Homo sapiens, T-cell, 20 h) [µM] |
| --- | --- | --- | --- | --- |
| 8.8 | 3.6 | Cn1c(=O)cc(N2CCN(C(c3ccc(F)cc3)c3ccc(F)cc3)CC2CF)c2nc(C#N)ccc21 (single isomer, unassigned) [Example 151, 8-(4-(bis(4-fluorophenyl)methyl)-2-(fluoromethyl)piperazin-1-yl)-5-methyl-6-oxo-5,6-dihydro-1,5-naphthyridine-2-carbonitrile] | 0.15 |  |
| 79 | 17 | COc1ccc2c(n1)c(N1C[C@@H](C)N(C(c3ccccc3)c3ccc(F)cc3)C[C@@H]1C)cc(=O)n2C (single isomer, unassigned) [Example 238] |  | 5 |
| 64 | 5.9 | COc1ccc2c(n1)c(N1C[C@@H](C)N(C(c3ccccc3)c3ccc(F)cc3)C[C@@H]1C)cc(=O)n2C (single isomer, unassigned) [Example 239] | 10 |  |
| 13 | 3.6 | C[C@@H]1CN(c2c(C#N)c(=O)n(C)c3ccc(Br)nc23)[C@@H](C)CN1C(c1ccc(F)cc1)c1ccc(F)cc1 [Example 158, 4-((2S,5R)-4-(bis(4-fluorophenyl)methyl)-2,5-dimethylpiperazin-1-yl)-6-bromo-1-methyl-2-oxo-1,2-dihydro-1,5-naphthyridine-3-carbonitrile] |  | 0.11 |
| 94 | 0.24 | Cn1c(=O)cc(N2CCN(C(c3ccc(F)cc3)c3ccc(F)cc3)C(C)(C)C2)c2nc(C#N)ccc21 [Example 171, 8-(4-(bis(4-fluorophenyl)methyl)-3,3-dimethylpiperazin-1-yl)-5-methyl-6-oxo-5,6-dihydro-1,5-naphthyridine-2-carbonitrile] |  | 10 |
| 1.4 | 0.93 | C[C@@H]1CN(c2cc(=O)n(C)c3ccc(C#N)nc23)[C@@H](C)CN1C(c1ccccc1)c1ccccc1 [Example 237, 8-[(2S,5R)-4-(diphenylmethyl)-2,5-dimethylpiperazin-1-yl]-5-methyl-6-oxo-5,6-dihydro-1,5-naphthyridine-2-carbonitrile] |  | 0.039 |
| 20 | 15 | COc1ccc2c(n1)c(N1C[C@@H](C)N(C(c3ccc(F)cc3)c3ccc(Cl)cc3)C[C@@H]1C)cc(=O)n2C (stereo partly drawn) [Example 240, 4-[(2S,5R)-4-[(4-chlorophenyl)(4-fluorophenyl)methyl]-2,5-dimethylpiperazin-1-yl]-6-methoxy-1-methyl-1,2-dihydro-1,5-naphthyridin-2-one] |  | 12 |
| 1.6 | 0.39 | C[C@@H]1CN(c2cc(=O)n(C)c3ccc(C#N)nc23)[C@@H](C)CN1Cc1c(F)cc(C#N)cc1F [Example 267, 8-[(2S,5R)-4-[(4-cyano-2,6-difluorophenyl)methyl]-2,5-dimethylpiperazin-1-yl]-5-methyl-6-oxo-5,6-dihydro-1,5-naphthyridine-2-carbonitrile] |  | 10 |
